Data taken from ChEMBL document CHEMBL1201862, “PubChem BioAssay data set” (2004).
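Dose response: 5 concentrations. Exposure: 48 h. Format: 96-well plates. Endpoint: linear interpolation; highest concentration if not reached. GI50 = concentration required for 50% inhibition of growth.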 Calls of active or inactive are those of the source. Cut-off read from the data, not from the text of the source: active = GI50 up to about 1.1 µM and inactive = higher.

Legend:
Assay in all cases: inhibition of tumour cell growth, NCI panel, 48 h
MOLT-4 = system: MOLT-4
Malme-3M = system: Malme-3M
OVCAR-4 = system: OVCAR-4
SNB-78 = system: SNB-78
TK-10 = system: TK-10
DLD-1 = system: DLD-1
RPMI-8226 = system: RPMI-8226
ACHN = system: ACHN
COLO 205 = system: COLO 205
SK-OV-3 = system: SK-OV-3
HOP-62 = system: HOP-62
SNB-75 = system: SNB-75
OVCAR-5 = system: OVCAR-5
SW-620 = system: SW-620
XF498 = system: XF498
A549 = system: A549
HCT-15 = system: HCT-15
SK-MEL-5 = system: SK-MEL-5
SF-268 = system: SF-268
HT-29 = system: HT-29
SK-MEL-28 = system: SK-MEL-28
IGROV-1 = system: IGROV-1
UACC-62 = system: UACC-62
NCI-H226 = system: NCI-H226
M19-MEL = system: M19-MEL
A498 = system: A498
CAKI-1 = system: CAKI-1
SK-MEL-2 = system: SK-MEL-2
LXFL 529 = system: LXFL 529
NCI-H522 = system: NCI-H522
786-0 = system: 786-0
LOX IMVI = system: LOX IMVI
SN12C = system: SN12C
NCI-H23 = system: NCI-H23
HOP-92 = system: HOP-92
HOP-18 = system: HOP-18
OVCAR-3 = system: OVCAR-3
SF-295 = system: SF-295
OVCAR-8 = system: OVCAR-8
DMS-114 = system: DMS-114
UO-31 = system: UO-31
M14 = system: M14
DMS-273 = system: DMS-273
UACC-257 = system: UACC-257
EKVX = system: EKVX
HCT-116 = system: HCT-116
SR = system: SR
SF-539 = system: SF-539
U-251 = system: U-251
HCC 2998 = system: HCC 2998
SNB-19 = system: SNB-19
KM-20L2 = system: KM-20L2
RXF 393 = system: RXF 393
KM12 = system: KM12
NCI-H460 = system: NCI-H460
K562 = system: K562
CCRF-CEM = system: CCRF-CEM
RXF 631 = system: RXF 631
HL-60 = system: HL-60

Measured: GI50

CC1=NN(C(=O)CC(=O)Nc2cccc(Cl)c2)C(=O)C1/N=N/c1ccc(S(N)(=O)=O)cc1 (centres undefined)
> 100 µM: HCT-15
inactive: MOLT-4 > 100 µM | Malme-3M > 100 µM | OVCAR-4 > 100 µM | SNB-78 > 100 µM | TK-10 > 100 µM | DLD-1 > 100 µM | RPMI-8226 > 100 µM | ACHN > 100 µM | COLO 205 > 100 µM | SK-OV-3 > 100 µM | HOP-62 > 100 µM | SNB-75 > 100 µM | OVCAR-5 > 100 µM | SW-620 > 100 µM | XF498 > 100 µM | A549 > 100 µM | SK-MEL-5 > 100 µM | SF-268 > 100 µM | HT-29 > 100 µM | SK-MEL-28 > 100 µM | IGROV-1 > 100 µM | UACC-62 > 100 µM | NCI-H226 > 100 µM | M19-MEL > 100 µM | A498 > 100 µM | CAKI-1 > 100 µM | SK-MEL-2 > 100 µM | LXFL 529 > 100 µM | NCI-H522 > 100 µM | 786-0 > 100 µM | LOX IMVI > 100 µM | SN12C > 100 µM | NCI-H23 > 100 µM | HOP-92 > 100 µM | HOP-18 > 100 µM | OVCAR-3 > 100 µM | SF-295 > 100 µM | OVCAR-8 > 100 µM | DMS-114 > 100 µM | UO-31 > 100 µM | M14 > 100 µM | DMS-273 > 100 µM | UACC-257 > 100 µM | EKVX > 100 µM | HCT-116 > 100 µM | SR > 100 µM | SF-539 > 100 µM | U-251 > 100 µM | HCC 2998 > 100 µM | SNB-19 > 100 µM | KM-20L2 > 100 µM | RXF 393 > 100 µM | KM12 > 100 µM | NCI-H460 > 100 µM

O=[N+]([O-])c1ccc2nc(/C(=N\Nc3ccccc3)C(O)c3ccc4c(c3)OCO4)c(O)nc2c1 (centres undefined)
20.7 µM: HCT-15
inactive: MOLT-4 > 100 µM | Malme-3M > 100 µM | OVCAR-4 > 100 µM | SNB-78 > 100 µM | TK-10 > 100 µM | DLD-1 > 100 µM | RPMI-8226 86.1 µM | ACHN 30.7 µM | COLO 205 > 100 µM | SK-OV-3 > 100 µM | HOP-62 > 100 µM | SNB-75 60 µM | SW-620 56.1 µM | A549 > 100 µM | K562 36.4 µM | SK-MEL-5 > 100 µM | CCRF-CEM > 100 µM | SF-268 > 100 µM | HT-29 97.1 µM | SK-MEL-28 > 100 µM | IGROV-1 7.74 µM | UACC-62 34 µM | NCI-H226 > 100 µM | M19-MEL > 100 µM | SK-MEL-2 > 100 µM | LXFL 529 50.7 µM | NCI-H522 39 µM | 786-0 > 100 µM | LOX IMVI > 100 µM | SN12C > 100 µM | RXF 631 > 100 µM | NCI-H23 > 100 µM | HOP-92 11 µM | OVCAR-3 > 100 µM | SF-295 > 100 µM | OVCAR-8 > 100 µM | DMS-114 37.4 µM | UO-31 79.3 µM | M14 > 100 µM | DMS-273 37.7 µM | UACC-257 > 100 µM | EKVX > 100 µM | HCT-116 > 100 µM | HL-60 52.1 µM | SR 91.6 µM | SF-539 > 100 µM | U-251 > 100 µM | HCC 2998 75.2 µM | SNB-19 > 100 µM | KM-20L2 67 µM | RXF 393 > 100 µM | KM12 41.6 µM | NCI-H460 > 100 µM

Nc1c(-c2ccc(Br)cc2)[n+]([O-])c2ccccc2[n+]1[O-]
> 100 µM: HCT-15
inactive: MOLT-4 39.2 µM | Malme-3M > 100 µM | OVCAR-4 > 100 µM | SNB-78 > 100 µM | DLD-1 > 100 µM | RPMI-8226 27.9 µM | ACHN > 100 µM | COLO 205 > 100 µM | SK-OV-3 > 100 µM | HOP-62 > 100 µM | SNB-75 81.3 µM | OVCAR-5 > 100 µM | SW-620 > 100 µM | A549 92 µM | K562 64.9 µM | SK-MEL-5 > 100 µM | SF-268 > 100 µM | HT-29 > 100 µM | SK-MEL-28 > 100 µM | IGROV-1 > 100 µM | NCI-H226 > 100 µM | A498 > 100 µM | CAKI-1 > 100 µM | SK-MEL-2 > 100 µM | LXFL 529 > 100 µM | NCI-H522 52.6 µM | 786-0 > 100 µM | SN12C > 100 µM | RXF 631 > 100 µM | NCI-H23 > 100 µM | HOP-92 > 100 µM | HOP-18 > 100 µM | OVCAR-3 92 µM | SF-295 > 100 µM | OVCAR-8 > 100 µM | DMS-114 50.9 µM | UO-31 38.6 µM | M14 > 100 µM | DMS-273 > 100 µM | UACC-257 > 100 µM | EKVX > 100 µM | HCT-116 > 100 µM | HL-60 82.4 µM | SF-539 > 100 µM | U-251 78.2 µM | SNB-19 > 100 µM | KM-20L2 > 100 µM | KM12 > 100 µM | NCI-H460 > 100 µM
